Data from publication doi:10.1101/2020.07.01.182642v1 (biorxiv, 2020).

Columns and labels:
CLK3 (R134-T484) [1] = molecular target: T1, CLK3 (R134-T484) (Homo sapiens, UniProt P49761, A319V); assay: Omnia kinase assay; format: biochemical
CLK1 (full-length) [2] = molecular target: CLK1 (full-length) (Homo sapiens, UniProt P49759, V324A); assay: cell-based
CLK1 (H148-I484) [3] = molecular target: T2, CLK1 (H148-I484) (Homo sapiens, UniProt P49759); settings: binder
CLK3 (R134-T484) [4] = molecular target: T3, CLK3 (R134-T484) (Homo sapiens, UniProt P49761); settings: binder
T3 sequence (P49761 134-484): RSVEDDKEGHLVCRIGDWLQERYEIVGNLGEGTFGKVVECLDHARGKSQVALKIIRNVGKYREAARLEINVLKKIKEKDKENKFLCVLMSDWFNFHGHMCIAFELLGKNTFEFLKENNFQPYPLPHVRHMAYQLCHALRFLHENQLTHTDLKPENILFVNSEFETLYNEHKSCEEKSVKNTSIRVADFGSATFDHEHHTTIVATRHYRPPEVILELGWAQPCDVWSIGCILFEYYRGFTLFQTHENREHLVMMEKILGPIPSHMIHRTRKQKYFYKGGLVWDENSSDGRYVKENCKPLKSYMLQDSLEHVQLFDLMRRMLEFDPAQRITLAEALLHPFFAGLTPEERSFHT

CLK3 (R134-T484) [5] = molecular target: T1, CLK3 (R134-T484); settings: binder
CLK1 = CLK1 (Homo sapiens, UniProt P49759); settings: binder
Sequence of CLK1 (P49759 whole entry): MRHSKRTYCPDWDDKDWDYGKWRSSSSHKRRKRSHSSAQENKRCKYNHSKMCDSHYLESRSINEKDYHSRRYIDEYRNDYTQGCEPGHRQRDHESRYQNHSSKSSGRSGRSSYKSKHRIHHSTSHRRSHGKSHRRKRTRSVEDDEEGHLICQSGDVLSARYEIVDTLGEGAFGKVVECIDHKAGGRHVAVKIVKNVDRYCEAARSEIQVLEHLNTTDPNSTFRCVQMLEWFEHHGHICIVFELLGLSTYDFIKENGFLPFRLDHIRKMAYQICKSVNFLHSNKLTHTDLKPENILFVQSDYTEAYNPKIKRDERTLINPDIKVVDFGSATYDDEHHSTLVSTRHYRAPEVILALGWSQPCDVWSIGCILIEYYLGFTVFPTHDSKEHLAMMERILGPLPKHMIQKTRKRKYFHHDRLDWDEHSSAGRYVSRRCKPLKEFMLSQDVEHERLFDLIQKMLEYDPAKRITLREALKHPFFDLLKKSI

CLK3 = CLK3 (Homo sapiens, UniProt P49761); settings: binder
Sequence of CLK3 (P49761 whole entry): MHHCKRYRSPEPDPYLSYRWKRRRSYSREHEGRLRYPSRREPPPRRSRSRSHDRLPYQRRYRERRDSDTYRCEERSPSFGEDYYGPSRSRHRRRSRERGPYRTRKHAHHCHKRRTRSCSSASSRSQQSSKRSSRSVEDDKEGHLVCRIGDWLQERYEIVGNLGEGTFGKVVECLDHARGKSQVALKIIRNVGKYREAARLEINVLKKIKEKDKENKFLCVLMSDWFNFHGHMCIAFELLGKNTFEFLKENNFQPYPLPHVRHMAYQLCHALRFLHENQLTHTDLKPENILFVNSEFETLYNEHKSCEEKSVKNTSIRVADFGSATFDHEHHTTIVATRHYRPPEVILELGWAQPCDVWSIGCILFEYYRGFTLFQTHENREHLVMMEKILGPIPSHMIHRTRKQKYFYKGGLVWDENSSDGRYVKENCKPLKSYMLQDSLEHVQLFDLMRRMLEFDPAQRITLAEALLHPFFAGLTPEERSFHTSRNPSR

CLK1 (H148-I484) [6] = molecular target: CLK1 (H148-I484) (Homo sapiens, UniProt P49759, V324A); settings: binder
Sequence of CLK1 (H148-I484) (Homo sapiens, UniProt P49759, V324A) (P49759 148-484 V324A): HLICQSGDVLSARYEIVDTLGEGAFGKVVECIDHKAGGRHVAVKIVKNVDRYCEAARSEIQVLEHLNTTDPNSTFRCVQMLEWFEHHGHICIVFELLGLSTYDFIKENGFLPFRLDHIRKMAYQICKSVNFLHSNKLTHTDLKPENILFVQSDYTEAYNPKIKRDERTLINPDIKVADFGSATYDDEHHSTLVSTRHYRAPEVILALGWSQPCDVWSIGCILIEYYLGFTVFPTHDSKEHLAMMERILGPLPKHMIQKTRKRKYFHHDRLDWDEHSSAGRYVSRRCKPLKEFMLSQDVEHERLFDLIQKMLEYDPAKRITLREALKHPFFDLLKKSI

CLK3 (R134-T484) [7] = molecular target: T3, CLK3 (R134-T484); settings: binder; remark: listed apart in the source
CLK1 (H148-I484) [8] = molecular target: T2, CLK1 (H148-I484); settings: binder; remark: listed apart in the source
CLK1 (full-length) [9] = molecular target: CLK1 (full-length) (Homo sapiens, UniProt P49759); assay: cell-based
Sequence of CLK1 (full-length) (Homo sapiens, UniProt P49759) (P49759 whole entry): as the sequence (P49759 whole entry) above

T1 sequence (P49761 134-484 A319V): as the sequence (P49761 134-484) above, with A186V counted along it
T2 sequence (P49759 148-484): as the sequence (P49759 148-484 V324A) above, with A177V counted along it
Sequence of CLK1 (full-length) (Homo sapiens, UniProt P49759, V324A) (P49759 whole entry V324A): as the sequence (P49759 whole entry) above, with V324A counted along it

## Cn1c2c(c3ccc(Cl)c(Cl)c31)C(C#N)C1(CCNCC1)NC2=O (racemic) [compound 3, KH-CARB13]
CLK3 (R134-T484) [1]
  Ki: 850 ± 300 nM
CLK1 (full-length) [2]
  Ki: 2810 ± 670 nM
CLK1 (H148-I484) [3]
  ΔTm wild type CLK1: 7.4 °C
CLK3 (R134-T484) [4]
  ΔTm wild type CLK3: 1.2 °C
CLK3 (R134-T484) [5]
  ΔTm A319V CLK3: 5.8 °C
CLK1
  ΔTm (°C) 3: 7.0 degC
CLK3
  ΔTm (°C) 3: 2.2 degC

## Cn1cc(-c2ccc3occ(-c4cccc(-c5ccncc5)c4)c3n2)cn1 [compound 5, MU1210]
CLK1 (H148-I484) [3]
  ΔTm wild type CLK1: 9.3 °C
CLK1 (H148-I484) [6]
  ΔTm V324A CLK1: 5.94 °C
CLK3 (R134-T484) [4]
  ΔTm wild type CLK3: 1.5 °C
CLK3 (R134-T484) [5]
  ΔTm A319V CLK3: 8.27 °C

## CN[C@@H]1C[C@H]2O[C@@](C)([C@@H]1OC)n1c3ccccc3c3c4c(c5c6ccccc6n2c5c31)C(=O)NC4 [compound 6, staurosporine]
CLK3 (R134-T484) [7]
  wild type CLK3: 4.7 °C

## CCOC(=O)c1c(/C(C#N)=C\N)c2ccc(Cl)c(Cl)c2n1C [compound 7, KH-CB19]
CLK1 (H148-I484) [8]
  wild type CLK1: 15.0 °C
CLK3 (R134-T484) [7]
  wild type CLK3: 8.6 °C

## CCOc1ccc2c(-c3ccnc(Nc4cc(OC)cc(C(F)(F)F)c4)n3)cnn2n1 [compound 8, GW807982X]
CLK1 (full-length) [9]
  Ki: 36 ± 20 nM
CLK1 (full-length) [2]
  Ki: 3930 ± 1100 nM
CLK1 (H148-I484) [8]
  wild type CLK1: 9 °C
CLK3 (R134-T484) [7]
  wild type CLK3: 2.0 °C

## CC(=O)c1cccc(-c2cnc3ccc(NC(CO)C(C)C)nn23)c1 (stereo not shown) [compound 9, K00518]
CLK1 (full-length) [9]
  Ki: 943 ± 640 nM
CLK1 (full-length) [2]
  Ki: 2640 ± 1800 nM

## CC(=O)c1cccc(-c2cnc3ccc(NC(CO)C(C)C)nn23)c1 (stereo not shown) [compound 9]
CLK1 (H148-I484) [3]
  ΔTm wild type CLK1: 6.8 °C
CLK1 (H148-I484) [6]
  ΔTm V324A CLK1: 3.9 °C
CLK3 (R134-T484) [4]
  ΔTm wild type CLK3: 1.8 °C
CLK3 (R134-T484) [5]
  ΔTm A319V CLK3: 8.6 °C

## CN1CCN(C(=O)C(C)(C)c2ccc(C(=O)Nc3cn4cc(-c5ccncc5)ccc4n3)cc2)CC1 [compound 10, T3-CLK]
CLK1 (full-length) [9]
  Ki: 1 ± 0.1 nM
CLK1 (full-length) [2]
  Ki: 2.3 ± 0.1 nM

## CN1CCN(C(=O)C(C)(C)c2ccc(C(=O)Nc3cn4cc(-c5ccncc5)ccc4n3)cc2)CC1 [compound 10]
CLK1 (H148-I484) [3]
  ΔTm wild type CLK1: 18.7 °C
CLK1 (H148-I484) [6]
  ΔTm V324A CLK1: 13.7 °C
CLK3 (R134-T484) [4]
  ΔTm wild type CLK3: 13.7 °C
CLK3 (R134-T484) [5]
  ΔTm A319V CLK3: 17.3 °C

## O=C1NCc2ccc3c(-c4cccc(Cl)c4)c[nH]c3c21 [compound 11, KuWal151]
CLK1 (full-length) [9]
  Ki: 228 ± 80 nM
CLK1 (full-length) [2]
  Ki: 878 ± 46 nM

## O=C1NCc2ccc3c(-c4cccc(Cl)c4)c[nH]c3c21 [compound 11]
CLK1 (H148-I484) [3]
  ΔTm wild type CLK1: 9.4 °C
CLK1 (H148-I484) [6]
  ΔTm V324A CLK1: 5.1 °C
CLK3 (R134-T484) [4]
  ΔTm wild type CLK3: 1.7 °C
CLK3 (R134-T484) [5]
  ΔTm A319V CLK3: 4.7 °C

## O=c1c2c(ccc3nc(-c4cccnc4)sc32)ncn1C1CC1 [compound 12, FC162]
CLK1 (full-length) [9]
  Ki: 1860 ± 1200 nM
CLK1 (full-length) [2]
  Ki: 5450 ± 790 nM

## O=c1c2c(ccc3nc(-c4cccnc4)sc32)ncn1C1CC1 [compound 12]
CLK1 (H148-I484) [3]
  ΔTm wild type CLK1: 9.5 °C
CLK1 (H148-I484) [6]
  ΔTm V324A CLK1: 3.0 °C
CLK3 (R134-T484) [4]
  ΔTm wild type CLK3: 3.6 °C
CLK3 (R134-T484) [5]
  ΔTm A319V CLK3: 5.5 °C

## COC(=N)c1nc2ccc3ncnc(Nc4ccc(OC)cc4F)c3c2s1 [compound 13, ETH1610]
CLK1 (H148-I484) [3]
  ΔTm wild type CLK1: 10.3 °C
CLK1 (H148-I484) [6]
  ΔTm V324A CLK1: 3.8 °C
CLK3 (R134-T484) [4]
  ΔTm wild type CLK3: 3.4 °C
CLK3 (R134-T484) [5]
  ΔTm A319V CLK3: 9.2 °C

## Cn1cc(-c2ccc3occ(-c4cccc(Oc5ccccc5)c4)c3n2)cn1 [compound 14, VN412]
CLK1 (H148-I484) [3]
  ΔTm wild type CLK1: 12.3 °C
CLK1 (H148-I484) [6]
  ΔTm V324A CLK1: 7.8 °C
CLK3 (R134-T484) [4]
  ΔTm wild type CLK3: 4.8 °C
CLK3 (R134-T484) [5]
  ΔTm A319V CLK3: 10.1 °C

## CN1CCC2(CC1)NC(=O)c1c(c3ccc(Cl)c(Cl)c3n1C)C2C#N (stereo not shown) [compound 16, KH-CARB10]
CLK1 (H148-I484) [3]
  ΔTm wild type CLK1: 6.1 °C
CLK1 (H148-I484) [6]
  ΔTm V324A CLK1: 1.8 °C
CLK3 (R134-T484) [4]
  ΔTm wild type CLK3: 1.1 °C
CLK3 (R134-T484) [5]
  ΔTm A319V CLK3: 5.0 °C

## Nc1ncnc2c1c(I)cn2C1OC(CO)C(O)C1O (stereo not shown) [compound 18, iodotubercidin]
CLK1 (H148-I484) [3]
  ΔTm wild type CLK1: 13.1 °C
CLK1 (H148-I484) [6]
  ΔTm V324A CLK1: 9.7 °C
CLK3 (R134-T484) [4]
  ΔTm wild type CLK3: 7.9 °C
CLK3 (R134-T484) [5]
  ΔTm A319V CLK3: 14.1 °C
